One test has as its system PD-L1. Put plainly: PD-L1 expression (western blot, RT-qPCR) in PC-3 cells expressing RL peptide. The test is classed as cell-based, human. Particulars: for gamma irradiation-induced upregulation of PD-L1: 12 Gy. On the procedure:
FIGS. 5A-K. The importance of S249/T252 phosphorylation of RB in regulation of PD-L1 expression. (A, B) PC-3 cells were infected with lentivirus expressing control shRNA, RB1-specific, p65-specific, or both shRNA. 48 hours post puromycin selection, cells were harvested for western blotting (A) and RT-qPCR analysis (B). All data were shown as mean values±SD (n=3). * P<0.05, ** P<0.01, *** P<0.001. (C, D) DU145 cells were transfected with indicated plasmids. 24 hours after transfection, cells were harvested for western blotting analysis (C) and RT-qPCR analysis (D). All data were shown as mean values±SD (n=3). * P<0.05, ** P<0.01, *** P<0.001. (E, F) DU145 cells were transfected with indicated plasmids. 24 hours after transfection, cells were harvested for western blotting analysis (E) and RT-qPCR analysis (F). All data were shown as mean values±SD (n=3). * P<0.05, ** P<0.01, *** P<0.001. (G, H) PC-3 cells were infected with lentivirus expressing control shRNA or p65-specific shRNAs. After 24 hours, cells were further transfected with empty vector or SFB-RL-S249D/T252D for another 24 hours followed by western blot analysis (G) and RT-qPCR analysis (H). All data were shown as mean values±SD (n=3). * P<0.05, ** P<0.01, *** P<0.001. (I) Representative images of IHC of anti-PD-L1 and anti-pRB-S249/T252 antibodies of TMA (n=145 TMA elements) tissue sections. Scale bars were shown as indicated. (J) Heatmap showing IHC score of PD-L1 and pRB-S249/T252 in TMA. (K) Correlation analysis of IHC score for expression of PD-L1 and pRB-S249/T252 polypeptides in prostate cancer patient specimens (n=145 TMA elements). Pearson's product-moment correlation co-efficiency and the P values were also shown.
FIGS. 6A-J. The small S249/T252 phosphorylation-mimicking polypeptide of RB blocks irradiation-induced PD-L1 expression and inhibits cancer immune evasion. (A, B) PC-3 cells were infected with lentivirus expressing control shRNA or p65-specific or shRNA. 24 hours after puromycin selection, cells were treated with or without gamma irradiation (IR) (12 Gy). 48 hours after IR treatment, cells were harvested for western blotting analysis (A) and RT-qPCR analysis (B). All data were shown as mean values±SD (n=3). * P<0.05, ** P<0.01, *** P<0.001. (C, D) PC-3 cells were treated with without gamma irradiation (12 Gy). Cells were harvested at the indicated time point for western blotting analysis (C) and RT-qPCR analysis (D). All data were shown as mean values±SD (n=3). * P<0.05, ** P<0.01, *** P<0.001. (E) Western blot analysis of WCL and co-IP samples in PC-3 cells 48 hours after treated with or without gamma irradiation (12 Gy). (F) ChIP-qPCR analysis of p65 binds at the PD-L1 promotor in PC-3 cells 48 hours after treated with or without gamma irradiation (12 Gy). All data were shown as mean values±SD (n=3). * P<0.05, ** P<0.01, *** P<0.001. (G, H) PC-3 cells were treated with or without gamma irradiation (12 Gy). 24 hours post treatment, cells were transfected with indicated constructs. 24 hours after transfection, cells were harvested for western blotting analysis (G) and RT-qPCR analysis (H). All data were shown as mean values±SD (n=3). * P<0.05, ** P<0.01, *** P<0.001. (I) PTEN-CaP8 mouse prostate cancer cells were transduced with lentivirus for control vector or the small RB S249/T252-phosphorylation-mimicking polypeptide RL-S249D/T252D. 72 hours after purimycin selection, 5×10^6 control or RL-S249D/T252D-expressing cells were injected subcutaneously into C57BL/6 mice. Mice (n=8/group) were treated with gamma irradiation (12 Gy) or mock treated, and with anti-PD-L1 (200 μg) or non-specific IgG for 45 days. (J) The absolute number of CD45^+CD8^+ T cells, CD45^+CD4^+ T cells, and CD11b^+Gr1^+ myeloid cells of implanted PTEN-CaP8 in tumors treated with indicated agents was analyzed by FACS. All data were shown as mean values±SD (n=8). ns, not significant, *** P<0.001.
Total RNA was isolated using TRIzol reagent (Thermo Fisher Scientific). […]
For orientation: A western blot detects proteins with antibodies after separation by electrophoresis.

In another test the test system is PTEN-CaP8 cells. Put plainly: Pd-l1 and NFκB target gene expression in PTEN-CaP8 cells expressing RL peptide. The test is classed as cell-based, mouse. On the procedure: FIGS. 13A-F. (A, B) PC-3 cells were treated with or without gamma irradiation (IR) (12 Gy). 24 hours post treatment, cells were treated with or without Helenalin (2 μM). 24 hours after treatment, cells were harvested for western blotting analysis (A) and RT-qPCR analysis (B). All data were shown as mean values±SD (n=3). “ns”=not significant, *** P<0.001. (C) PTEN-CaP8 cells were infected with lentivirus expression Tsin control or Tsin-RL S249D/T252D peptide. 72 hours post infection, cell were harvested for western blotting analysis. (D, E) PTEN-CaP8 cells were infected with lentivirus expression Tsin control or Tsin-RL S249D/T252D peptide. 72 hours post infection, cells were treated with or without gamma irradiation (12 Gy) for 48 hours. Cells were harvested for MTS assay (D) and RT-qPCR (E). All data were shown as mean values±SD (n=3). “ns”=not significant, ** P<0.01; *** P<0.001. (F) Schematic diagram depicting the treatment plan for mice bearing subcutaneous PTEN-CaP8 tumors.
Total RNA was isolated using TRIzol reagent (Thermo Fisher Scientific). The NanoDrop 2000 spectrophotometer (Thermo Fisher Scientific) was used to assess RNA yield and quality. […] Quantitative real-time PCR was performed by mixing cDNA, gene-specific primers, and IQ SYRB Green Supermix and detected by iCycler QTX detection system (Bio-Rad). The 2-ΔCt method was used to quantitate fold changes by normalizing to GAPDH. […]

The target of another test is T1, p65-N (Homo sapiens, UniProt Q04206).
T1 construct: made in house
T1 sequence (Q04206 19-306 limits assumed): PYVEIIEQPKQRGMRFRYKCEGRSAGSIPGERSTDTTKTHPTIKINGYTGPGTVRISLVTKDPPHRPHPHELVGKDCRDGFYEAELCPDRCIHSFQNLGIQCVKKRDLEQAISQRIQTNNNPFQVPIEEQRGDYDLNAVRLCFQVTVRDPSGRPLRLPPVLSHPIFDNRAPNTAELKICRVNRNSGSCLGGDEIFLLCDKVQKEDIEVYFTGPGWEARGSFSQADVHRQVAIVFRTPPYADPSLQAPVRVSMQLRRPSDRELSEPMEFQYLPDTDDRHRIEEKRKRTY
Briefly: In vitro protein binding assay of RL peptide with GST-p65-N. Particulars: compared to phosphorylation-resistant mutant.

Ends that are not written are not given here.

On to “RL-S249D/T252D: S249/T252 phospho-mimicking R-Linker (RL) peptide: fragment of RB-N containing 21 amino acids surrounding S249/T252, expressed SFB-tagged or by lentivirus (NGDPRDPRRGQNRSARIAKQL; also: expressed SFB-tagged (tag left off))”, for which, in the test with PD-L1 (PC-3 cells transfected with SFB-tagged peptide, 24 hours), the “PD-L1 expression in p65-proficient cells” value is “largely inhibited”. For the same substance, the “PD-L1 expression (FIG. 6G)” value with PD-L1 (PC-3 cells transfected with peptide construct) is listed as “almost completely blocked”. Also, the “PD-L1 expression in p65-depleted cells” value with PD-L1 (PC-3 cells with p65 shRNA, transfected with SFB-tagged peptide, listed as RL-S249/T252D peptide) is “little or no effect”. Also, the “gamma irradiation-induced upregulation of PD-L1” value in the test on PD-L1 (PC-3 cells, ectopic expression of peptide) is listed as “largely, but not completely blocked”; in the test on PD-L1 (PC-3 cells, ectopic expression of peptide, listed as RL-S249/T252D), “largely diminished”. Moreover, the PD-L1 basal level result with PD-L1 (PC-3 cells, ectopic expression of peptide, no irradiation) is listed as “decreased”. In addition, the “expression of anti-apoptotic / pro-survival NFκB target genes” value with PTEN-CaP8 cells (PTEN-CaP8 cells, lentiviral peptide expression) is on record as “blocked”. Also, in the test on PTEN-CaP8 cells (lentiviral Tsin-RL S249D/T252D, 72 hours), the “Pd-l1 expression in PTEN-CaP8 cells” value is reported as “completely blocked”. Moreover, in the test with p65-N, the “binding of in vitro transcribed and translated RL peptide to p65-N” value is given as “much stronger”.

Source of the values: US20210401931A1, “METHODS AND MATERIALS FOR TREATING CANCER” (Mayo Foundation for Medical Education and Research, priority 2018, published 2021).
